Read-outs that look alike come from different tables or passages of the source.
Key:
insulin receptor [1] = biological target: T1, insulin receptor (Homo sapiens, UniProt P06213); test: surface plasmon resonance; assay type: binding
insulin receptor [2] = biological target: T1, insulin receptor; test: surface plasmon resonance; assay type: binding; remark: listed apart in the source

T1 sequence (P06213 28-758): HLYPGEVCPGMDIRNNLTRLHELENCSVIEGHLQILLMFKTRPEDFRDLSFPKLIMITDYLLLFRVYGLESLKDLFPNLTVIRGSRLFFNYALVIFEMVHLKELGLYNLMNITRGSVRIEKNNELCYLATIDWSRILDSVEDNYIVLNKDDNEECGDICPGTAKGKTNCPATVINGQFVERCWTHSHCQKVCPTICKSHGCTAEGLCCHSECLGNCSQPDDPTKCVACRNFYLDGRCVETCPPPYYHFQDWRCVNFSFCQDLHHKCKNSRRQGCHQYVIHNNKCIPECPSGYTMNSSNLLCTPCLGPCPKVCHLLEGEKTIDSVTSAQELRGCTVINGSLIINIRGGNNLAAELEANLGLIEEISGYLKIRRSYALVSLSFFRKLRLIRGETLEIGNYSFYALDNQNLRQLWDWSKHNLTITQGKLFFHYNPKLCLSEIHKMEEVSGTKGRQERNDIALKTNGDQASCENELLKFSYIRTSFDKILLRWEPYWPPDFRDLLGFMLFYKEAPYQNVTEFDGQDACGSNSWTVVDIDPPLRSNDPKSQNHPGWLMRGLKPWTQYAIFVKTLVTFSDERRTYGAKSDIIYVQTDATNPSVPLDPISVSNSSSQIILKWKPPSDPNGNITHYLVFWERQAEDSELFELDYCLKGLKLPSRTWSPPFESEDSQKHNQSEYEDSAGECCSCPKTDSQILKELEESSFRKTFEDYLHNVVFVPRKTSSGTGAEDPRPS
T1 sequence (P06213 763-956): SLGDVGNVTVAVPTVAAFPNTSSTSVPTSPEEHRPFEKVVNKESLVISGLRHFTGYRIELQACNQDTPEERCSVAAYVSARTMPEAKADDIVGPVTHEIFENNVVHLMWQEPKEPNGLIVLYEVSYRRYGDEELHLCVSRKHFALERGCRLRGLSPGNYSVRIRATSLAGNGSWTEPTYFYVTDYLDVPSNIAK

| Structure (SMILES) | Kd (insulin receptor [1]) [µM] | Kd (insulin receptor [2]) [µM] |
| --- | --- | --- |
| CN(C)C(=N)N=C(N)N [Metformin] | ~84 |  |
| O=c1c2ccccc2nc2n1CCc1c-2[nH]c2ccccc12 [Rut-0, Rutaecarpine] |  | ~14 |
